Drawing on DBAASP, this text covers MIC for four molecules.

By MIC is commonly meant the lowest concentration found to suppress growth. Higher therefore signals weaker potency.

Structures are written as SMILES. In brackets after ≈: the same amount, converted by molar mass. Several values for one entry are separate records, joined by “and”; a condition that tells them apart may be missing. Identical values can stand only once.

Holding throughout (experiment): ≥ marks a high value that may be exact or a test limit, other limits are often not marked, values filed in µg/mL are converted to µM
Experiment [1] concerns Candida glabrata.
Experiment [2] relates to Candida albicans IHEM 8060.
For experiment [3], the system named is Bacillus megaterium.
The subject of experiment [4] is Staphylococcus aureus ATCC BAA-44.
Experiment [5] concerns Streptococcus pyogenes ATCC 19615.
For experiment [6], the system named is Staphylococcus aureus JC114.
Experiment [7] has as its system Pseudomonas aeruginosa ATCC 9027.
In experiment [8] the test system is Escherichia coli D21.
Experiment [9] has as its system Candida albicans ATCC 90028.
Experiment [10] deals with Candida parapsilosis ATCC 22019.
Experiment [11] concerns Escherichia coli ATCC 35218.
Experiment [12] concerns Escherichia coli ML-35p.
The test system of experiment [13] is Pseudomonas aeruginosa ATCC 27853.
Experiment [14] concerns Staphylococcus aureus.
The subject of experiment [15] is Escherichia coli JC113.
The test system of experiment [16] is Saccharomyces cerevisiae.
The test system of experiment [17] is Staphylococcus aureus USA 300.
The test system of experiment [18] is Staphylococcus aureus ATCC 43300.
For experiment [19], the system named is Acinetobacter baumannii ATCC 19606.
Experiment [20] deals with Aspergillus flavus.
Experiment [21] relates to Klebsiella pneumoniae ATCC 700603.
The test system of experiment [22] is Acinetobacter baumannii.
Experiment [23] concerns Escherichia coli.
Experiment [24] deals with Listeria ivanovii.
In experiment [25] the test system is Bacillus subtilis JC443.
Experiment [26] concerns Pseudomonas aeruginosa JC115.
In experiment [27] the test system is Enterococcus faecalis ATCC 29212.
Experiment [28] deals with Klebsiella pneumoniae.
Experiment [29] concerns Staphylococcus aureus USA 100.
Experiment [30] has as its system Pseudomonas aeruginosa PAO1.
Experiment [31] concerns Pasteurella multocida.
Experiment [32] concerns Staphylococcus epidermidis.
The test system of experiment [33] is Escherichia coli UB1005.
Experiment [34] concerns Bacillus cereus.
Experiment [35] deals with Streptococcus uberis.
The test system of experiment [36] is Leuconostoc lactis.
The test system of experiment [37] is Micrococcus luteus.
The test system of experiment [38] is Bacillus cereus C737.
Experiment [39] has as its system Listeria innocua.
The test system of experiment [40] is Photobacterium damselae subsp. piscicida Sp 9587.
Experiment [41] deals with Staphylococcus aureus IAM 1011.
For experiment [42], the system named is Vibrio parahaemolyticus Vp+1.
Experiment [43] concerns Bacillus subtilis IAM 1026.
The test system of experiment [44] is Shewanella putrefaciens IAM 1509.
The test system of experiment [45] is Escherichia coli JCM 1649.
In experiment [46] the test system is Vibrio anguillarum NCIMB 829.
For experiment [47], the system named is Aeromonas salmonicida NCIMB 1102.
The test system of experiment [48] is Salmonella typhimurium.

`CC[C@H](C)[C@@H]1NC(=O)[C@@H](N)CSSC[C@@H]2NC(=O)[C@@H]3CSSC[C@@H](C(=O)N[C@@H](CCCN=C(N)N)C(=O)O)NC(=O)[C@H](Cc4ccc(O)cc4)NC(=O)CNC(=O)[C@H](C)NC(=O)[C@H](C(C)C)NC(=O)[C@H](Cc4c[nH]c5ccccc45)NC(=O)CNC(=O)[C@@H]4CCCN4C(=O)[C@H](CCC(=O)O)NC(=O)[C@H](CCCCN)NC(=O)[C@H](Cc4cnc[nH]4)NC(=O)[C@H](CSSC[C@H](NC(=O)CNC(=O)[C@H](CC(N)=O)NC(=O)[C@H](CCCN=C(N)N)NC(=O)[C@H](CC(N)=O)NC(=O)[C@H](C)NC1=O)C(=O)N[C@@H](CCC(N)=O)C(=O)N1CCC[C@H]1C(=O)N[C@@H](CC(=O)O)C(=O)NCC(=O)N[C@@H](CO)C(=O)N[C@@H](CCC(N)=O)C(=O)NCC(=O)N[C@@H](CC(N)=O)C(=O)N3)NC(=O)[C@H](Cc1ccc(O)cc1)NC(=O)CNC(=O)[C@H](CO)NC2=O` [CIANRNGCQPDGSQGNCCSGYCHKEPGWVAGYCR]: the minimum inhibitory concentration (MIC) in experiment [1] and in [2] was 17.6 µM (≈ 63.9 µg/mL) throughout.
On to `CC[C@H](C)[C@H](NC(=O)[C@H](CCCN=C(N)N)NC(=O)[C@H](CO)NC(=O)[C@H](CC(C)C)NC(=O)[C@H](Cc1ccccc1)NC(=O)[C@H](Cc1ccccc1)NC(=O)[C@@H](N)Cc1ccccc1)C(=O)N[C@@H](Cc1ccccc1)C(N)=O` [FFFLSRIF], for which the MIC in experiment [3] is 3 µM (≈ 3.23 µg/mL); in experiment [4], 25 µM (≈ 26.9 µg/mL); in [5] it was 25 µM (≈ 26.9 µg/mL); in experiment [6], ≥ 121 µM; in [7] it was > 100 µM; in experiment [8] it was ≥ 100 µM. The minimum inhibitory concentration (MIC) in [9] was ≥ 100 µM; in [10], ≥ 50 µM; in experiment [11], ≥ 200 µM; in experiment [12] it was 30 µM (≈ 32.3 µg/mL); in [13] it was > 200 µM and 100 µM; in experiment [14], 100 µM (≈ 108 µg/mL). Also, the minimal inhibitory concentration (MIC) in experiment [15] was ≥ 116 µM; in experiment [16], 12.5 µM (≈ 13.4 µg/mL); in experiment [17] it was ≥ 50 µM; in [18], > 100 µM; in experiment [19] it was > 100 µM; in [20], ≥ 200 µM. Also, the minimal inhibitory concentration (MIC) in [21] is > 100 µM; in experiment [22], ≥ 100 µM; in experiment [23], > 100 µM; in experiment [24], ≥ 50 µM; in [25] it was ≥ 149 µM; in [26], ≥ 88 µM. For the same molecule, the MIC in experiment [27] was 50 µM and 100 µM; in experiment [28], > 100 µM; in experiment [29], ≥ 50 µM.
Turning to `CC[C@H](C)[C@H](NC(=O)[C@H](CC(=O)O)NC(=O)[C@H](Cc1ccccc1)NC(=O)[C@H](CC(C)C)NC(=O)CN)C(=O)N[C@H](C(=O)N[C@@H](CCCCN)C(=O)N[C@@H](CCCCN)C(=O)N[C@H](C(=O)N[C@H](C(=O)NCC(=O)N[C@@H](C)C(=O)N[C@@H](CC(C)C)C(=O)NCC(=O)N[C@@H](CO)C(=O)N[C@@H](CC(C)C)C(N)=O)C(C)C)C(C)C)C(C)C` [GLFDIVKKVVGALGSL], the MIC is > 79.2 µM in [30]; ≥ 61.9 µM in [31]; 15.5 µM (≈ 25 µg/mL) in experiment [32]; ≥ 39.6 µM in experiment [33]; ≥ 61.9 µM in experiment [34]; ≥ 61.9 µM in [35]. Also, the MIC in [14] was 15.5 µM (≈ 25 µg/mL); in [36] it was 7.43 µM (≈ 12 µg/mL); in experiment [37], 15.5 µM (≈ 25 µg/mL); in experiment [23], > 61.9 µM; in [38], ≥ 79.2 µM; in experiment [39], 7.43 µM (≈ 12 µg/mL).
Regarding `CC[C@H](C)[C@H](NC(=O)[C@H](CCCCN)NC(=O)CNC(=O)[C@H](CC(C)C)NC(=O)[C@@H](NC(=O)[C@H](CCCCN)NC(=O)[C@H](CCCNC(=N)N)NC(=O)[C@H](Cc1c[nH]c2ccccc12)NC(=O)[C@@H](N)CC(N)=O)[C@@H](C)CC)C(=O)N[C@@H](C)C(=O)N[C@@H](CCCCN)C(=O)N[C@H](C(=O)N[C@@H](C)C(=O)N[C@@H](C)C(=O)NCC(=O)N[C@@H](CC(C)C)C(=O)N[C@@H](CC(C)C)C(=O)NCC(=O)N[C@@H](CO)C(=O)N[C@@H](CCSC)C(=O)N[C@@H](CC(C)C)C(=O)N[C@@H](C)C(=O)NCC(=O)N[C@@H](Cc1ccc(O)cc1)C(=O)N[C@@H](CCC(N)=O)C(=O)N[C@H](C(=O)O)C(C)C)C(C)C` [NWRKILGKIAKVAAGLLGSMLAGYQV], the MIC in experiment [40] is 2.27 µM (≈ 6.25 µg/mL); in experiment [41], 4.53 µM (≈ 12.5 µg/mL); in experiment [42] it was 9.06 µM (≈ 25 µg/mL); in experiment [43], 2.27 µM (≈ 6.25 µg/mL); in experiment [44] it was 2.27 µM (≈ 6.25 µg/mL); in experiment [45] it was 4.53 µM (≈ 12.5 µg/mL). Moreover, the results for the minimum inhibitory concentration (MIC) in experiment [46], in experiment [47] and in [48] were 4.35 µM (≈ 12 µg/mL), 9.06 µM (≈ 25 µg/mL) and 4.53 µM (≈ 12.5 µg/mL), respectively.
